Experimental data reported in PMC6707612, “Cyclic-di-GMP binds to histidine kinase RavS to control RavS-RavR phosphotransfer and regulates the bacterial lifestyle transition between virulence and swimming” (PLoS Pathogens, 2019).
“Also recorded” adds a separate entry of the source.

Tests used:
[1] = molecular target: EAL domain of RavR (Xanthomonas campestris pv. campestris); assay: SEC + AUC; purified EAL protein, 15 uM, incubated with 300 uM c-di-GMP in phosphodiesterase reaction buffer (50 mM Tris-HCl pH 7.5, 250 mM NaCl, 25 mM KCl, 10 mM MgCl2, 2 mM DTT) at 4 C for 30 min; Superdex 75 10/300 GL to separate dimer and monomer; molecular weight of each fraction determined by analytical ultracentrifugation
RavS^ΔTrM = molecular target: T1, RavS^ΔTrM (Xanthomonas campestris pv. campestris, UniProt Q8P9A6); assay: microscale thermophoresis (MST) binding; conditions: 20 nM fluorescein-labelled nucleotide
T1 sequence (Q8P9A6 47-697): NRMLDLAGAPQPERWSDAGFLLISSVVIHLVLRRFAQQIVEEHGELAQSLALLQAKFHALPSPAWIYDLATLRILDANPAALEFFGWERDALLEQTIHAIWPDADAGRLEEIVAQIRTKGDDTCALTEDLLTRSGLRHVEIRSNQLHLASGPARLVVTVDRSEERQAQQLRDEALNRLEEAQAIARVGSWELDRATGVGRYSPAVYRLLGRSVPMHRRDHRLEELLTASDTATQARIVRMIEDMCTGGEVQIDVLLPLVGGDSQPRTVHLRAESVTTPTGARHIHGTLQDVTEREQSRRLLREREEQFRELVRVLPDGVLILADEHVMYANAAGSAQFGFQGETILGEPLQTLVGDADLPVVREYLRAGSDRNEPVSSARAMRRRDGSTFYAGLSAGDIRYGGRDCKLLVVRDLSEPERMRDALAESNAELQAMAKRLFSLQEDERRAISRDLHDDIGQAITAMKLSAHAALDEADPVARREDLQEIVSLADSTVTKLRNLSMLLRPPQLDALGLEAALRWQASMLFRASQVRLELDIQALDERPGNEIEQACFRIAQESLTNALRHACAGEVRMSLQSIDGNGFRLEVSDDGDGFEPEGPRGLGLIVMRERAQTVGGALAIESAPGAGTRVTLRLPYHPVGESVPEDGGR
Procedure: (a) c-di-GMP enhances RavS-RavR phosphotransfer in vitro. A total of 5 μM RavS^ΔN was autophosphorylated for 15 min by the addition of 10 μCi [γ-^32P]ATP. A total of 15 μM RavR^ΔEAL or RavR^ΔEAL(D496A) was added and incubated for 30 min at 25°C. A total of 100 μM c-di-GMP was added if necessary. The reactions were terminated with 5× SDS loading buffer before autoradiography. The experiment was repeated three times. (b) Time course analyses of the impact of c-di-GMP on the velocity of RavS-RavR phosphotransfer. The autophosphorylation and phosphotransfer reactions were set as mentioned in (a). Various concentrations of c-di-GMP were added to the reactions and isotopic signals (band intensities) of RavS~P were measured after autoradiography. (c–d) c-di-GMP triggered an increase in RavS-RavR phosphotransfer in a dose-dependent manner. (c) Various concentrations of c-di-GMP (0, 5, 10, 15, 30, 50, 75 and 100 μM) were added to the RavS-RavR phosphotransfer reactions. (d) The phosphorylated level of RavS^ΔN~P was quantified by ImageJ and the EC50 value was estimated by Origin 8.5 software. In (b) and (d), the intensity of each data point is the average from three experimental repeats. (e) c-di-GMP triggered increase in RavS-RavR phosphotransfer is highly specific. […] The interaction between RavS^ΔTrM and various nucleotides, including fl-c-di-GMP, fl-cGMP and fl-c-di-AMP, were measured by microscale thermophoresis (MST). A total of 20 nM fluorescein-labelled nucleotides and increasing concentrations of proteins were incubated and measured by MST. The dissociation constant (Kd) was quantified to estimate the binding affinity. […]
The interaction between c-di-GMP nucleotides and various proteins was measured by using MST with a fluorescein-labelled c-di-GMP (2′-Fluo-AHC-c-di-GMP, abbreviated as fl-c-di-GMP; 2′-Fluo-AHC-c-di-AMP, fl-c-di-AMP; 2′-Fluo-AHC-cGMP, fl-cGMP; Biolog, Germany). These chemicals contain carboxyfluorescein that has excitation and emission wavelengths of 497 nm and 520 nm, respectively, which can be detected directly by a MST instrument. […]

RavS^ΔN = molecular target: T2, RavS^ΔN (Xanthomonas campestris pv. campestris, UniProt Q8P9A6); assay: in vitro RavS-RavR phosphotransfer assay (RavS~P level by autoradiography); format: biochemical; conditions: specificity control nucleotides
T2 sequence (Q8P9A6 352-697): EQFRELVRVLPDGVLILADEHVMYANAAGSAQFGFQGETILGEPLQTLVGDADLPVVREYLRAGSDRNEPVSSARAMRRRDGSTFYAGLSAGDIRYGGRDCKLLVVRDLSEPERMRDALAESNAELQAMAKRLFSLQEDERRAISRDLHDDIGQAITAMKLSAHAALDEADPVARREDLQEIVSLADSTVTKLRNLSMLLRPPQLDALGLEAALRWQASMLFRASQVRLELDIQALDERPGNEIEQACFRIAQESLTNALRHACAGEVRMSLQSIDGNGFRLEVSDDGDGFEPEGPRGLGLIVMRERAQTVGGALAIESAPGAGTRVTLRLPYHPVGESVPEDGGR
Procedure: (a) c-di-GMP enhances RavS-RavR phosphotransfer in vitro. A total of 5 μM RavS^ΔN was autophosphorylated for 15 min by the addition of 10 μCi [γ-^32P]ATP. A total of 15 μM RavR^ΔEAL or RavR^ΔEAL(D496A) was added and incubated for 30 min at 25°C. A total of 100 μM c-di-GMP was added if necessary. The reactions were terminated with 5× SDS loading buffer before autoradiography. The experiment was repeated three times. (b) Time course analyses of the impact of c-di-GMP on the velocity of RavS-RavR phosphotransfer. The autophosphorylation and phosphotransfer reactions were set as mentioned in (a). Various concentrations of c-di-GMP were added to the reactions and isotopic signals (band intensities) of RavS~P were measured after autoradiography. (c–d) c-di-GMP triggered an increase in RavS-RavR phosphotransfer in a dose-dependent manner. (c) Various concentrations of c-di-GMP (0, 5, 10, 15, 30, 50, 75 and 100 μM) were added to the RavS-RavR phosphotransfer reactions. (d) The phosphorylated level of RavS^ΔN~P was quantified by ImageJ and the EC50 value was estimated by Origin 8.5 software. In (b) and (d), the intensity of each data point is the average from three experimental repeats. (e) c-di-GMP triggered increase in RavS-RavR phosphotransfer is highly specific. […] (f) RavS specifically interacts with fl-c-di-GMP. The interaction between RavS^ΔTrM and various nucleotides, including fl-c-di-GMP, fl-cGMP and fl-c-di-AMP, were measured by microscale thermophoresis (MST). A total of 20 nM fluorescein-labelled nucleotides and increasing concentrations of proteins were incubated and measured by MST. The dissociation constant (Kd) was quantified to estimate the binding affinity. Each experiment was repeated three times.
An in vitro autophosphorylation assay was conducted as described in our previous study. Purified protein was incubated with 10 μM ATP containing 10 μCi [γ-^32P]ATP (PerkinElmer, USA) in the reaction buffer (50 mM Tris-HCl, pH 7.8, 25 mM NaCl, 25 mM KCl, 5 mM MgCl2, 2 mM DTT) for the indicated time at 28°C. If necessary, c-di-GMP was added to the mixture at the same time as ATP. For the phosphoryl transfer assay, purified RR protein or its derivative was added into the reaction mixture containing the phosphorylated HK. The autophosphorylation or phosphoryl transfer reaction was terminated by adding 5× SDS-PAGE loading buffer. Phosphorylated proteins were separated by 12% SDS-PAGE. After electrophoresis, gels were exposed to a phosphor screen (GE Healthcare) and the autoradiographic signals were detected by a Typhoon FLA7000 (GE Healthcare).

| Compound | impact on RavS phosphotransferase activity / velocity of RavS-RavR phosphotransfer (RavS^ΔN) | further results |
| --- | --- | --- |
| EAL domain of RavR (domain or fragment) |  | stoichiometry N [1]: 2 |
| 2′-Fluo-AHC-cGMP [fl-cGMP] |  | Kd (RavS^ΔTrM; read-out: dissociation constant (Kd)): 64.4 ± 9.43 µM |
| 2′-Fluo-AHC-c-di-AMP [fl-c-di-AMP] |  | dissociation constant (Kd) (RavS^ΔTrM): no binding; also recorded: completely failed to bind |
| Nc1nc2c(ncn2[C@@H]2O[C@H](COP(=O)(O)OP(=O)(O)OP(=O)(O)O)[C@@H](O)[C@H]2O)c(=O)[nH]1 [GTP] | did not affect; also recorded: did not have any impact |  |
| Nc1nc2c(ncn2[C@@H]2O[C@H](COP(=O)(O)O)[C@@H](O)[C@H]2O)c(=O)[nH]1 [GMP] | did not affect; also recorded: did not have any impact |  |
| Nc1nc2c(ncn2[C@@H]2O[C@@H]3COP(=O)(O)O[C@H]3[C@H]2O)c(=O)[nH]1 [cGMP] | did not affect; also recorded: did not have any impact |  |
| Nc1ncnc2c1ncn2[C@@H]1O[C@@H]2COP(=O)(O)O[C@H]3[C@@H](O)[C@H](n4cnc5c(N)ncnc54)O[C@@H]3COP(=O)(O)O[C@H]2[C@H]1O [c-di-AMP] | did not affect; also recorded: did not have any impact |  |
